Reference: article PMC4305287, “Two Novel α7 Nicotinic Acetylcholine Receptor Ligands: In Vitro Properties and Their Efficacy in Collagen-Induced Arthritis in Mice” (PLoS ONE, 2015)
pEC50, pIC50, pKi: −log10 of the molar value. Entries after “also recorded” stand apart in the source; their conditions may differ.

Columns and labels:
α4β2 nAChR = biological target: T1, α4β2 nAChR (Rattus norvegicus, UniProt P09483+P12390); assay: cytisine binding to rat brain membranes; details: read-out: Ki, α4β2nAChR binding affinity
T1 construct: tissue Cerep; host or cells: rat brain membranes
Protocol: (§1) Broad selectivity was assessed at Cerep (Celle l’ Evescault, France), as described in the Cerep catalog, though the determination of the effect of PMP-311 and PMP-072 in in vitro radioligand receptor binding assays with 52 different receptors, channels, and transporters. The specific ligand binding to the receptors is defined as the difference between the total binding, and the nonspecific binding determined in the presence of an excess of unlabelled ligand. The results are expressed as a percent of control specific binding and as the mean percent inhibition of control specific binding obtained in the presence of 10 μM PMP-311 and PMP-072. Individual and mean values are presented in the results section. The IC50 values (concentration causing a half-maximal inhibition of control specific binding) and Hill coefficients (nH) were determined by non-linear regression as described above.

[1] = biological target: T2, human serotonin transporter (Homo sapiens, UniProt P31645); assay: Cerep broad selectivity radioligand binding panel
T2 construct: Cerep
Protocol: as §1

human α7 nAChR = biological target: T3, human α7 nAChR (Homo sapiens, UniProt P36544); assay: voltage-clamp electrophysiology in Xenopus oocytes; type: biochemical; details: for agonist activity at α7 nAChR ion channel: Xenopus oocyte membrane current, control conditions
T3 construct: expressed in transfected cells; host or cells: Xenopus laevis oocytes injected with cRNA; clones from Dr. Jon Lindstrom (α7) and Dr. Millet Treinin (RIC-3)
Protocol: Human nAChR receptor clones were obtained from Dr. Jon Lindstrom (University of Pennsylvania, Philadelphia, PA). The RIC-3 clone was obtained from Dr. Millet Treinin (Hebrew University, Jerusalem, Israel). Subsequent to linearization and purification of cloned cDNAs, RNA transcripts were prepared in vitro using the appropriate mMessage Machine kit from Ambion Inc. (Austin, TX).
The preparation of Xenopus laevis oocytes for RNA expression was conducted as previously described. Stage 5 oocytes were isolated and injected with […] (5–20 ng) of each subunit cRNAs. Recordings were conducted 2–5 days after injection. RNA coding for human α7 nAChR was routinely co-injected with the cDNA for human RIC-3, an accessory protein that improves and accelerates α7 nAChR expression without affecting the pharmacological properties of the receptors.
Experiments were conducted using OpusXpress6000A (Molecular Devices, Union City, CA) as described before. ACh applications were 12 seconds in duration.
Each oocyte received two initial control applications of 300 μM ACh, followed by the experimental drug application, and subsequent control application of 300 μM ACh, unless otherwise indicated. Responses to experimental drug applications were determined relative to the preceding ACh control responses in order to normalize the data, compensating for the varying levels of channel expression among the oocytes. Responses for α7 nAChR were calculated as net charge, since peak currents inaccurately report the agonist concentration dependence of α7 nAChR-mediated responses. For experiments measuring the effects of ACh and the experimental compounds on allosterically modulated receptors, following the acquisition of baseline responses, cells were given a 60 s application of 300 μM PNU-120596. […] For all experiments, means and standard error of the mean (SEM) were calculated from the normalized responses of at least four oocytes for each experimental concentration, plotted using Kaleidagraph 3.52 (Synergy Software, Reading, PA), and curves were generated from the Hill equation: Response=IMax[agonist]^n/[agonist]^n+(EC50)^n where Imax denotes the maximal response for a particular agonist/subunit combination, and n represents the Hill coefficient. Imax, n, and the EC50 were all unconstrained for the fitting procedures except in the case of the ACh concentration-response curves.

[2] = system: collagen-induced arthritis; assay: collagen-induced arthritis in DBA/1 mice; details: for disease incidence and onset: 5 mg/kg oral daily day 20-34
Protocol: Collagen-induced arthritis was induced and evaluated as previously described. The severity of arthritis was assessed using an established semiquantitative scoring system (0–4; 0 = normal, 1 = swelling in 1 joint, 2 = swelling in >1 joint, 3 = swelling in the entire paw, and 4 = deformity and/or ankylosis. The cumulative score for all 4 paws of each mouse was used to represent overall disease severity and progression. Hind paw ankle joint thickness was measured using a caliper For the evaluation of incidence, mice were considered to have arthritis if the arthritis score increased by at least 1 point for 2 or more following days.
In study 1, we evaluated the role of the two novel α7nAChR-specific modulators in CIA. The receptors were stimulated by oral gavage of PMP-311 (5 mg/kg; n = 15) or PMP-072 (5 mg/kg; n = 17). The compounds were administered once a day from day 20 until the end of the experiment (day 34). Control mice received saline. In study 2, we evaluated the anti-inflammatory effects of different dosages of the α7nAChR-specific agonists. PMP-311 (2 or 10 mg/kg; n = 15) and PMP-072 (10 or 20 mg/kg; n = 15) were administered in the same way as in study 1. In both studies, mice were inspected daily for signs of arthritis and thickness of hind paws was measured using a caliper from day 16 till sacrifice by 2 independent observers (MAvM and JK) who were not aware of the treatment.
Hind paws were used for radiographic evaluation. Joint destruction was scored on a scale of 0–4, where 0 = no damage, 1 = demineralization, 2 = 1 or 2 erosions, 3 = severe erosions, and 4 = complete destruction of the joints. The radiographs were scored by 2 independent observers (MAvM and MJV) in a blinded manner; minor differences in scoring between the observers were resolved by mutual agreement.
Hind paws were fixed for 24 hours in 10% buffered formalin and decalcified in 15% EDTA. The paws were then embedded in paraffin, and serial 5 μm sagittal sections of whole hind paws were cut and stained with hematoxylin and eosin (HE). Two independent observers (MAvM and MJV) assessed the tissue for the degree of synovitis by microscopic evaluation, under blinded conditions, as described previously. Synovitis was graded on a scale of 0 (no inflammation) to 3 (severely inflamed joint) based on the extent of infiltration of inflammatory cells into the synovium.
To evaluate the effects of different treatments, we determined the change in clinical arthritis scores in each mouse from the start of treatment until the end of the experiment. AUC for the change in arthritis scores were calculated. The significance of the differences in the mean changes in scores (clinical, radiologic and histologic) between groups was determined by Kruskal-Wallis test followed by Mann-Whitney U test (SPSS version 12.0.2; SPSS, Chicago, IL). Incidence was compared using Kaplan-Meier survival analysis (GraphPad Prism). P values less than 0.05 were considered statistically significant.

[3] = study 1, 5 mg/kg oral daily day 20-34

T1 sequence (P09483 31-630): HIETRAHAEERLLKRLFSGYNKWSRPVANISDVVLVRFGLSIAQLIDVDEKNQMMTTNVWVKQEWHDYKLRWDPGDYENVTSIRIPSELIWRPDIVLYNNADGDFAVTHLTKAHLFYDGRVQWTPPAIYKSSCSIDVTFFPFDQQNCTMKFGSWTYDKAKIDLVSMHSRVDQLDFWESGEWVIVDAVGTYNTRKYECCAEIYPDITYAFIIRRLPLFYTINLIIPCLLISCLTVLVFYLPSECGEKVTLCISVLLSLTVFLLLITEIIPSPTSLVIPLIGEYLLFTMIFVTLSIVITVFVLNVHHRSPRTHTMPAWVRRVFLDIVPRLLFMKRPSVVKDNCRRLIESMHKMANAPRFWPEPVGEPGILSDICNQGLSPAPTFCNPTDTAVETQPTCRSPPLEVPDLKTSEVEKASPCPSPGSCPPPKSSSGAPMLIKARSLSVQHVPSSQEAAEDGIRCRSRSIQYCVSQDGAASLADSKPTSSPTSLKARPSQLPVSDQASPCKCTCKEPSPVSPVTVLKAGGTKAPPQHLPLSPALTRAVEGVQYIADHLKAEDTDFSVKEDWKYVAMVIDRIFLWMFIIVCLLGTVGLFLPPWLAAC
T1 sequence (P12390 25-500): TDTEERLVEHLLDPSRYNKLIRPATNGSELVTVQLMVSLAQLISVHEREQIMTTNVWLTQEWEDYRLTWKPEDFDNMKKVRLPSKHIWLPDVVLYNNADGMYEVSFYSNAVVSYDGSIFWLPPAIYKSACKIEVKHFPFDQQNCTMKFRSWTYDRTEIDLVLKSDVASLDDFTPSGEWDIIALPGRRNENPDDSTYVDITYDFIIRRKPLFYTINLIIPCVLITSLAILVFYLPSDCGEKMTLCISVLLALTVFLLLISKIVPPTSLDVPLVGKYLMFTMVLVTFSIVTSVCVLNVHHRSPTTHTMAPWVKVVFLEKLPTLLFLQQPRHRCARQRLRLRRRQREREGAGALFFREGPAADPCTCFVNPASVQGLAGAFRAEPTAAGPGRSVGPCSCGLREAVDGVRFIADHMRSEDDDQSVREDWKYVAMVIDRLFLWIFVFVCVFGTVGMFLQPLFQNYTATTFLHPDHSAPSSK
T3 sequence (P36544 23-502): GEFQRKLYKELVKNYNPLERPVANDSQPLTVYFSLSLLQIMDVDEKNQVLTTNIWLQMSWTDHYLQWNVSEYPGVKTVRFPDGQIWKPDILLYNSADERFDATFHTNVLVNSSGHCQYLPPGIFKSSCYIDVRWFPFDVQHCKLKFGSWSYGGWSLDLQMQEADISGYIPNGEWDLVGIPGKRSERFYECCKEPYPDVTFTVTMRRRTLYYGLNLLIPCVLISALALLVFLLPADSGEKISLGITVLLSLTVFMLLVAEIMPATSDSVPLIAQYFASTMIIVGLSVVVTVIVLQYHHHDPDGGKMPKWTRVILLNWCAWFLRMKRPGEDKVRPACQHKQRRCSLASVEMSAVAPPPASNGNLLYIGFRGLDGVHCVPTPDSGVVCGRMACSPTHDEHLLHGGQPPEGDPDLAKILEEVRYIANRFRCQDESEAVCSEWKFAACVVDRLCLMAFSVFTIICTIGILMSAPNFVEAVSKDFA
T2 sequence (P31645 whole entry): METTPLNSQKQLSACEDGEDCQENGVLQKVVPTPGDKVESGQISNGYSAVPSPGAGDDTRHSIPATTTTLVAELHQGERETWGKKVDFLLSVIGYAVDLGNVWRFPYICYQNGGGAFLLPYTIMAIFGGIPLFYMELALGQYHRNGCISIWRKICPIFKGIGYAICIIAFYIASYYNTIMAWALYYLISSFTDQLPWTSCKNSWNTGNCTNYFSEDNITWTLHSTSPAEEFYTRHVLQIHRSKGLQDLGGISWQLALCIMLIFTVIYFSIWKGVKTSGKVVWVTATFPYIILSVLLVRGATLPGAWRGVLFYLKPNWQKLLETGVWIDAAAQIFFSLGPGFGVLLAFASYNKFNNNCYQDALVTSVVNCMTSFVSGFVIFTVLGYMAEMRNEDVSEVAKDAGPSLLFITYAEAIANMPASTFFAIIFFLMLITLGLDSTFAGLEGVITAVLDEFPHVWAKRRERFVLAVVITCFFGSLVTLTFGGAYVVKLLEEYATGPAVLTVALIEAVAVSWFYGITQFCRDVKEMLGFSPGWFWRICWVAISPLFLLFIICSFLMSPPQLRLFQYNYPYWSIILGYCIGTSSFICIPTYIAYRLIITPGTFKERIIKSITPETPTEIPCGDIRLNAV

SMILES: COc1ccc(NC(=O)N2CCNC[C@@H]2COc2cccnc2)cc1 [PMP-072, (R)-N-(4-methoxyphenyl)-2-((pyridin-3-yloxy)methyl)piperazine-1-carboxamide]
- pKi (α4β2 nAChR): < 4.00
- pKi [1]: 5.74
- agonist activity at α7 nAChR ion channel (human α7 nAChR): did not appear to be an agonist
- pIC50 (human α7 nAChR; co-applied with 60 μM ACh, read-out: IC50, antagonism of ACh-stimulated α7 nAChR channel activity): 7.30 to 7.70
- effect on arthritis activity ([2]; 5 mg/kg oral daily): did not significantly ameliorate arthritis activity; also recorded: trend towards improvement
- joint destruction (radiographic score) ([2]; 5 mg/kg oral daily): did not reduce bone degradation
- disease incidence and onset [2]: trend towards reduced incidence of disease
- joint destruction (radiographic score) ([2]; 10 mg/kg oral daily): trend towards reduced joint destruction
- paw swelling ([2]; 10 mg/kg oral daily): decrease in paw swelling
- reduction in arthritis score compared to saline ([2]; 10 mg/kg oral daily): 48%
- synovial inflammation (synovitis score) ([2]; 10 mg/kg oral daily): significantly lower scores for synovitis
- effect on arthritis score ([2]; 20 mg/kg oral daily): no improvement
- tolerability of treatment [2, 3]: tolerated the drug treatment well
- tolerability of treatment ([2]; study 2, PMP-311 2 and 10 mg/kg, PMP-072 10 and 20 mg/kg): tolerated the drug treatments well

SMILES: c1cncc(OC[C@@H]2CNCCN2c2nc3ncccc3o2)c1 [PMP-311, (S)-2-(2-((Pyridin-3-yloxy)methyl)piperazin-1-yl)oxazolo[4,5-b]pyridine]
- pKi (α4β2 nAChR): 7.52
- inhibition at 10 µM ([1]; 10 μM): 72%
- agonist activity at α7 nAChR ion channel (human α7 nAChR): elicited a typical inward current
- pEC50 (human α7 nAChR; Xenopus oocytes, read-out: EC50 of α7 nAChR activation): ~6.70
- Emax (human α7 nAChR; net charge, normalized to 300 μM ACh, read-out: maximum response compared to ACh): ~85%
- joint destruction (radiographic score) ([2]; 2 mg/kg oral daily): significant reduction in joint destruction
- mice that developed arthritis ([2]; 2 mg/kg oral daily): 14 out of 15
- paw swelling ([2]; 2 mg/kg oral daily): decreased
- reduction in arthritis score compared to saline ([2]; 2 mg/kg oral daily): 40%
- synovial inflammation ([2]; 2 mg/kg oral daily): significant reduction
- animals that did not develop arthritis ([2]; 5 mg/kg oral daily): six out of 15
- effect on arthritis activity ([2]; 5 mg/kg oral daily): amelioration of clinical signs of arthritis
- joint destruction (radiographic score) ([2]; 5 mg/kg oral daily): significant reduction in joint destruction
- synovial inflammation (HE staining of knee joints) ([2]; 5 mg/kg oral daily): significant reduction of synovial inflammation
- disease incidence and onset [2]: reduced disease incidence and delayed onset of disease
- reduction in clinical score compared to saline ([2]; 5 mg/kg oral daily, dose-response comparison): 49%
- joint destruction (radiographic score) ([2]; 10 mg/kg oral daily): significantly decreased
- reduction in arthritis score compared to saline ([2]; 10 mg/kg oral daily): 39%
- decrease in paw swelling compared to saline-treated mice [2, 3]: 39%
- decrease of AUC of clinical score compared to control mice [2, 3]: 51%
